IC50 data for 33 compounds are collected here from US20040006236A1, “Diaminopropionic acid derivatives” (priority 1999, published 2004).

Counter-ions that a name gives are not always drawn. Like-named read-outs stand apart in the source and are kept apart here.

Assay [1] deals with T1, LFA-1 binding to immobilized ICAM-1 (Homo sapiens, UniProt P05107+P20701).
T1 construct: made in house; host or cells: transfected 293 cells (LFA-1)
The experiment in a line: LFA-1/ICAM-1 protein-protein assay (solid-phase ELISA). Conditions: read-out: LFA-1/ICAM-1 Protein-Protein Assay IC50. In a few lines: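 Human 5dICAM-Ig (ICAM-1 extracellular domain–IgG Fc) coated on plates; membrane-bound LFA-1 from transfected 293 cells (280 ng/mL) added with compound in Mn2+-containing HEPES buffer pH 7.2, 2 h at 37° C. Bound LFA-1 detected via anti-β2 antibody and HRP/TMB at 450 nm; IC50s determined.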

For assay [2], the system named is T lymphocyte proliferation (C57BI/6 spleen cells with irradiated BALB/c spleen cells). Put plainly: Mixed lymphocyte reaction (MLR), one-way. Conditions: read-out: MLR IC50. Type of assay: cell-based, mice. The gist of the method: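 Irradiated BALB/c spleen cells mixed with C57BI/6 spleen cells in RPMI1640/10% heat-inactivated FBS/2-mercaptoethanol, with serial antagonist dilutions; 3 days at 5% CO2. Tritiated thymidine (0.5 μCi/well) added on day 3; incorporation counted by liquid scintillation after a further 6 h.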

T1 sequence (P20701 26-1170): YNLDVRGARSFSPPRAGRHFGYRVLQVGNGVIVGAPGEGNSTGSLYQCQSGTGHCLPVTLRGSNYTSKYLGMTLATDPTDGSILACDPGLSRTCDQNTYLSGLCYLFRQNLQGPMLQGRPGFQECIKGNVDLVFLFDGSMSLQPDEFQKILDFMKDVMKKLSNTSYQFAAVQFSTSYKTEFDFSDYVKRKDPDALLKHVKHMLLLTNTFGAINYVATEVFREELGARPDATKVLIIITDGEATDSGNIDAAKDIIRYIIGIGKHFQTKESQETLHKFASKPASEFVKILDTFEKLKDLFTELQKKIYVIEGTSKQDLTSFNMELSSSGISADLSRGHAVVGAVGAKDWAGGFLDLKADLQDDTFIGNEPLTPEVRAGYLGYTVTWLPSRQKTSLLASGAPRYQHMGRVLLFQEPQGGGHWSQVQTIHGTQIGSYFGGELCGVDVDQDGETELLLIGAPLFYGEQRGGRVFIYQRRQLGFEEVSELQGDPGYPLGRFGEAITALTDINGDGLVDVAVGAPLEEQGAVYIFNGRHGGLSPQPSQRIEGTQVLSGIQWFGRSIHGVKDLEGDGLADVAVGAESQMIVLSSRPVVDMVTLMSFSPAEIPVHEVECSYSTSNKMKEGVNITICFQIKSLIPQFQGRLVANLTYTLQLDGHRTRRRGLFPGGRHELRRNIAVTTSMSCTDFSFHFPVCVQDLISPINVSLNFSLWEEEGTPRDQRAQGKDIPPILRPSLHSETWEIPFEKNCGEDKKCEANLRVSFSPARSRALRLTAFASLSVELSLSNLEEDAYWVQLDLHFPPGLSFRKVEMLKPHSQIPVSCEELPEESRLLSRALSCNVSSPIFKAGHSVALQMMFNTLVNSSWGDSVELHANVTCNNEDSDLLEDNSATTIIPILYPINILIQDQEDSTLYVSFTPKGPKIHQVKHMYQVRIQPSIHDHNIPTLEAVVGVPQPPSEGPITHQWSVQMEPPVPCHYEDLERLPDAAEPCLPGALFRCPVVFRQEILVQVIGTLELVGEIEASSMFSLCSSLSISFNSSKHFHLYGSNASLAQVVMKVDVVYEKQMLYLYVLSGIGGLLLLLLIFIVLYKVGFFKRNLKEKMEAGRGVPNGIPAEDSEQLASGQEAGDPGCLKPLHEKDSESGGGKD
T1 sequence (P05107 23-769): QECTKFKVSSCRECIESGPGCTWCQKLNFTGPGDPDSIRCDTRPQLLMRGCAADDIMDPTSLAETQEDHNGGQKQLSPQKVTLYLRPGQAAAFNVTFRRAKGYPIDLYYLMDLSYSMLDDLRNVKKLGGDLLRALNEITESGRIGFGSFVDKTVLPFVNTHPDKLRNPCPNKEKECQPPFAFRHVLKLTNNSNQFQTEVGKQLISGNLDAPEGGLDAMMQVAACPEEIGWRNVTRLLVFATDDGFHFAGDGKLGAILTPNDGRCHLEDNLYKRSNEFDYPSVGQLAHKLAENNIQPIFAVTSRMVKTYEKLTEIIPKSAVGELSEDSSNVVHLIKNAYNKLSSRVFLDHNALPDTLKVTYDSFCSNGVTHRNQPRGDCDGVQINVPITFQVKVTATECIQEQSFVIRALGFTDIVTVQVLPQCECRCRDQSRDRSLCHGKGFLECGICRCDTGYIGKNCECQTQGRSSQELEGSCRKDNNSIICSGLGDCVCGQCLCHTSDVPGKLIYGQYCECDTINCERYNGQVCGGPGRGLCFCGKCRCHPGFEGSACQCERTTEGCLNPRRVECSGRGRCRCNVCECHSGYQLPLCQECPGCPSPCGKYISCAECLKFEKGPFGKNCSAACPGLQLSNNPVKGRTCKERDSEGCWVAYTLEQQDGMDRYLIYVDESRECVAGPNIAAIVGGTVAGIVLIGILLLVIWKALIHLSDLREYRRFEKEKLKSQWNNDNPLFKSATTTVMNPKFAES

On to `COc1c(C(=O)NC[C@H](NC(=O)c2ccc(C(=O)NCc3cccc(O)c3)cc2Cl)C(=O)O)csc1Cl` [Example 258, N-[2-chloro-4-[[[(3-hydroxyphenyl)methyl]amino]carbonyl]benzoyl]-3-(5-chloro-4-methoxythiophene-3-carbonyl)amino-L-alanine], for which the IC50 in assay [1] is 2.2 nM; in assay [2] (Mus musculus, T-lymphocyte), 3750 nM.

With `O=C(NCc1cccc(O)c1)c1ccc(C(=O)N[C@@H](CNC(=O)c2ccoc2)C(=O)O)c(Cl)c1` [Example 259, N-[2-chloro-4-[[[(3-hydroxyphenyl)methyl]amino]carbonyl]benzoyl]-3-(furan-3-carbonyl)amino-L-alanine], the IC50 in assay [1] was determined as 1.2 nM; in assay [2] (Mus musculus, T-lymphocyte), 260 nM.

Turning to `NCCCC(=O)NC[C@H](NC(=O)c1ccc(C(=O)NCc2cccc(O)c2)cc1Cl)C(=O)O` [Example 261, N-[2-chloro-4-[[[(3-hydroxyphenyl)methyl]amino]-carbonyl]benzoyl]-3-(4-aminobutanoylamino)-L-alanine], the IC50 was found to be 2.2 nM in assay [1] and 780 nM in assay [2] (Mus musculus, T-lymphocyte).

In the case of `O=C(NCc1cccc(O)c1)c1ccc(C(=O)N[C@@H](CNC(=O)C2CCNCC2)C(=O)O)c(Cl)c1` [Example 262], the IC50 in assay [1] worked out at 4.8 nM; in assay [2] (Mus musculus, T-lymphocyte), 1800 nM.

Take `NC1(C(=O)NC[C@H](NC(=O)c2ccc(C(=O)NCc3cccc(O)c3)cc2Cl)C(=O)O)CCCC1` [Example 263]: the IC50 in assay [1] came to 4.2 nM; in assay [2] (Mus musculus, T-lymphocyte) it was 2100 nM.

For the compound `N[C@H]1CC[C@@H](C(=O)NC[C@H](NC(=O)c2ccc(C(=O)NCc3cccc(O)c3)cc2Cl)C(=O)O)CC1` [Example 264], the IC50 was determined as 4.6 nM in assay [1] and 1950 nM in assay [2] (Mus musculus, T-lymphocyte).

On to `Nc1cccn(CC(=O)NC[C@H](NC(=O)c2ccc(C(=O)NCc3cccc(O)c3)cc2Cl)C(=O)O)c1=O` [Example 266], for which the IC50 in assay [1] was determined as 4.6 nM; in assay [2] (Mus musculus, T-lymphocyte) it was 3050 nM.

Take `O=C(O)c1cccc(C(=O)NC[C@H](NC(=O)c2ccc(C(=O)NCc3cccc(O)c3)cc2Cl)C(=O)O)c1` [Example 297]: the IC50 in assay [1] amounted to 0.8 nM; in assay [2] (Mus musculus, T-lymphocyte), 1650 nM.

Consider `O=C(O)CCCC(=O)NC[C@H](NC(=O)c1ccc(C(=O)NCc2cccc(O)c2)cc1Cl)C(=O)O` [Example 298], for which the IC50 was 4.8 nM in assay [1] and 1800 nM in assay [2] (Mus musculus, T-lymphocyte).

`O=C(NCc1cccc(O)c1)c1ccc(C(=O)N[C@@H](CNC(=O)c2ccccc2)C(=O)O)c(Cl)c1` [Example 302, 3-benzoylamino-N-[2-chloro-4-[[[(3-hydroxyphenyl)methyl]amino]carbonyl]benzoyl]-L-alanine]: the IC50 is 0.9 nM in assay [1] and 310 nM in assay [2] (Mus musculus, T-lymphocyte).

Consider `O=C(NCc1cccc(O)c1)c1ccc(C(=O)N[C@@H](CNC(=O)c2cccs2)C(=O)O)c(Cl)c1` [Example 303, N-[2-chloro-4-[[[(3-hydroxyphenyl)methyl]amino]carbonyl]benzoyl]-3-(thiophene-2-carbonyl)amino-L-alanine], for which the IC50 in assay [1] was 0.5 nM; in assay [2] (Mus musculus, T-lymphocyte), 70 nM.

With `O=C(NCc1cccc(O)c1)c1ccc(C(=O)N[C@@H](CNC(=O)c2cccs2)C(=O)O)c(Cl)c1` [Example 305, N-[2-chloro-4-[[[(3-hydroxyphenyl)methyl]amino]carbonyl]benzoyl]-3-(thiophene-2-carbonyl)amino-L-alanine, sodium salt], the IC50 came to 1 nM in assay [1] and 100 nM in assay [2] (sodium salt).

Turning to `O=C(NCc1cccc2[nH]ccc12)c1ccc(C(=O)N[C@@H](CNC(=O)c2ccccc2)C(=O)O)c(Cl)c1` [Example 314, 3-(benzoylamino)-N-[2-chloro-4-[[(1H-indol-4-ylmethyl)amino]carbonyl]benzoyl]-L-alanine], the IC50 in assay [1] was 1.9 nM; in assay [2] (Mus musculus, T-lymphocyte), 625 nM.

With `O=C(NCc1cccc2[nH]ccc12)c1ccc(C(=O)N[C@@H](CNC(=O)c2ccoc2)C(=O)O)c(Cl)c1` [Example 316], the IC50 was determined as 1.3 nM in assay [1] and 425 nM in assay [2] (Mus musculus, T-lymphocyte).

Turning to `Cc1ccc(C(=O)NC[C@H](NC(=O)c2ccc(C(=O)NCc3cccc4[nH]ccc34)cc2Cl)C(=O)O)s1` [Example 317], the IC50 came out at 3.5 nM in assay [1] and 1750 nM in assay [2] (Mus musculus, T-lymphocyte).

Consider `O=C(NCc1cccc2c1CCN2)c1ccc(C(=O)N[C@@H](CNC(=O)c2cccs2)C(=O)O)c(Cl)c1` [Example 318, 3-(thiophene-2-carbonyl)amino-N-[2-chloro-4-[[(2,3-dihydro-1H-indol-4-ylmethyl)amino]carbonyl]benzoyl]-L-alanine], for which the IC50 in assay [1] is 1.9 nM; in assay [2] (Mus musculus, T-lymphocyte), 1850 nM.

`O=C(CCc1cccc(O)c1)c1ccc(C(=O)N[C@@H](CNC(=O)c2cccs2)C(=O)O)c(Cl)c1` [Example 319, N-[2-chloro-4-[1-oxo-3-(3-hydroxyphenyl)propyl]benzoyl]-3-(thiophene-2-carbonyl)amino-L-alanine]: the IC50 in assay [1] worked out at 1.4 nM; in assay [2] (Mus musculus, T-lymphocyte) it was 665 nM.

In the case of `O=C(NC[C@H](NC(=O)c1ccc(-n2nnnc2NCc2cccc(O)c2)cc1Cl)C(=O)O)c1cccs1` [Example 321], the IC50 in assay [1] is 2.6 nM; in assay [2] (Mus musculus, T-lymphocyte), 775 nM.

`O=C(NCc1cccc2[nH]cnc12)c1ccc(C(=O)N[C@@H](CNC(=O)c2cccs2)C(=O)O)c(Cl)c1` [Example 322]: the IC50 in assay [1] is 8.5 nM; in assay [2] (Mus musculus, T-lymphocyte), 3600 nM.

Consider `Cc1cc(C(=O)NCc2cccc(O)c2)ccc1C(=O)N[C@@H](CNC(=O)c1cccs1)C(=O)O` [Example 323], for which the IC50 worked out at 1.3 nM in assay [1] and 325 nM in assay [2] (Mus musculus, T-lymphocyte).

`O=C(NCc1cccc2[nH]ncc12)c1ccc(C(=O)N[C@@H](CNC(=O)c2cccs2)C(=O)O)c(Cl)c1` [Example 327, N-[2-chloro-4-[[[(1H-indazol-4-yl)methyl]amino]carbonyl]benzoyl]-3-(thiophene-2-carbonyl)amino-L-alanine]: the IC50 in assay [1] came to 1.8 nM; in assay [2] (Mus musculus, T-lymphocyte), 180 nM.

With `O=C(NCc1cccc2[nH]ccc12)c1ccc(C(=O)N[C@@H](CNC(=O)c2cccs2)C(=O)O)c(Br)c1` [Example 329], the IC50 worked out at 2.7 nM in assay [1] and 420 nM in assay [2] (Mus musculus, T-lymphocyte).

For `Cc1cc(C(=O)NCc2cccc(O)c2)cc(C)c1C(=O)N[C@@H](CNC(=O)c1cccs1)C(=O)O` [Example 330], the IC50 in assay [1] was 1.4 nM; in assay [2] (Mus musculus, T-lymphocyte) it was 32 nM.

As for `C[C@@H](NC(=O)c1ccc(C(=O)N[C@@H](CNC(=O)c2cccs2)C(=O)O)c(Br)c1)c1cccc2ccccc12` [Example 332], the IC50 in assay [1] is 4.8 nM; in assay [2] (Mus musculus, T-lymphocyte) it was 1540 nM.

As to `Cc1cc(C(=O)N[C@H](C)c2cccc3ccccc23)cc(C)c1C(=O)N[C@@H](CNC(=O)c1cccs1)C(=O)O` [Example 333], the IC50 in assay [1] worked out at 3.5 nM; in assay [2] (Mus musculus, T-lymphocyte), 180 nM.

On to `Nc1cccc(CNC(=O)c2ccc(C(=O)N[C@@H](CNC(=O)c3cccs3)C(=O)O)c(Br)c2)c1` [Example 334, N-[4-[[[(3-aminophenyl)methyl]amino]carbonyl]-2-bromobenzoyl]-3-(thiophene-2-carbonyl)amino-L-alanine], for which the IC50 in assay [1] was found to be 3 nM; in assay [2] (Mus musculus, T-lymphocyte), 495 nM.

Turning to `Cc1cc(C(=O)NCc2cccc(O)c2)cc(C)c1C(=O)N[C@@H](CNC(=O)c1ccsc1)C(=O)O` [Example 336, N-[2,6-dimethyl-4-[[[(3-hydroxyphenyl)methyl]amino]carbonyl]benzoyl]-3-(thiophene-3-carbonyl)amino-L-alanine], the IC50 came out at 2.1 nM in assay [1] and 33 nM in assay [2] (Mus musculus, T-lymphocyte).

`Cc1cc(C(=O)NCc2cccc(O)c2)cc(C)c1C(=O)N[C@@H](CNC(=O)c1cc(F)cc(F)c1)C(=O)O` [Example 337, N-[2,6-dimethyl-4-[[[(3-hydroxyphenyl)methyl]amino]carbonyl]benzoyl]-3-(3,5-difluorobenzoylamino)-L-alanine]: the IC50 in assay [1] stood at 3.7 nM; in assay [2] (Mus musculus, T-lymphocyte), 59 nM.

In the case of `Cc1cc(C(=O)NCc2cccc(O)c2)cc(Cl)c1C(=O)N[C@@H](CNC(=O)c1cccs1)C(=O)O` [Example 338, N-[2-chloro-4-[[[(3-hydroxyphenyl)methyl]amino]carbonyl]-6-methylbenzoyl]-3-[(thiophene-2-carbonyl)amino]-L-alanine], the IC50 in assay [1] is 1.5 nM; in assay [2] (Mus musculus, T-lymphocyte), 21 nM.

For `Cc1cc(C(=O)NCc2cccc(O)c2)cc(Cl)c1C(=O)N[C@@H](CNC(=O)c1ccsc1)C(=O)O` [Example 339, N-[2-chloro-4-[[[(3-hydroxyphenyl)methyl]amino]carbonyl]-6-methylbenzoyl]-3-[(thiophene-3-carbonyl)amino]-L-alanine], the IC50 in assay [1] worked out at 1.7 nM; in assay [2] (Mus musculus, T-lymphocyte), 29 nM.

`Cc1cc(C(=O)NCc2cccc(O)c2)cc(Cl)c1C(=O)N[C@@H](CNC(=O)c1cc(F)cc(F)c1)C(=O)O` [Example 340, N-[2-chloro-4-[[[(3-hydroxyphenyl)methyl]amino]carbonyl]-6-methylbenzoyl]-3-[(3,5-difluorobenzoyl)amino]-L-alanine]: the IC50 was determined as 0.3 nM in assay [1] and 36 nM in assay [2] (Mus musculus, T-lymphocyte).

Turning to `O=C(NCc1cccc(O)c1)c1cc(Cl)c(C(=O)N[C@@H](CNC(=O)c2cccs2)C(=O)O)c(Cl)c1` [Example 342, N-[2,6-dichloro-4-[[[(3-hydroxyphenyl)methyl]amino]carbonyl]benzoyl]-3-[(thiophene-2-carbonyl)amino]-L-alanine], the IC50 in assay [1] was determined as 1.6 nM; in assay [2] (Mus musculus, T-lymphocyte) it was 27 nM.

As for `O=C(NCc1cccc(O)c1)c1cc(Cl)c(C(=O)N[C@@H](CNC(=O)c2ccsc2)C(=O)O)c(Cl)c1` [Example 343, N-[2,6-dichloro-4-[[[(3-hydroxyphenyl)methyl]amino]carbonyl]benzoyl]-3-[(thiophene-3-carbonyl)amino]-L-alanine], the IC50 came to 2.5 nM in assay [1] and 30 nM in assay [2] (Mus musculus, T-lymphocyte).
